# Results from patent US20220096510A1, “METHOD AND PHARMACOLOGICAL COMPOSITION FOR THE PREVENTION OF RECURRENT INFECTIONS CAUSED BY CLOSTRIDIUM DIFFICILE” (UNIVERSIDAD ANDRÉS BELLO, priority 2018, published 2022).
# Tests used:
# Caco-2 cells = assay: Cell viability by the trypan blue and MTT methods, Caco-2; format: cell-based; conditions: results not shown
# T84 cells = assay: Cell viability by the trypan blue and MTT methods, T84; format: cell-based; conditions: results not shown
# [1] = test system: C. difficile R20291 spores in Caco-2 cells; assay: Internalized (taurocholate- and ethanol-resistant) spores in infected Caco-2 cells by the seeding method; format: cell-based; conditions: 30 μM nystatin before and during infection; then 0.1% taurocholate 1 h and 70% ethanol
# [2] = test system: C. difficile strain R20291; assay: Murine R-CDI model, intraperitoneal nystatin before and during CDI with oral vancomycin (Example 4)
# C. difficile [3] = conditions: cited from earlier work; for patients who presented late R-CDI: after 28 days
# C. difficile spores = format: in vivo, C57BL/6 mice; conditions: day 2; nystatin 8,500 IU/kg oral from day -1
# C. difficile [4] = test system: C. difficile
# Excerpt: Mice were infected and dosed with an oral solution comprising a combination of nystatin and vancomycin starting from day 3 after infection (time of manifestation of the clinical symptoms).
# In this sense, we studied the effect of a formulation comprising nystatin together with vancomycin administered from day 3.
# C. difficile toxin TcdB = conditions: patients with CDI; cited from earlier work
# C. difficile [5] = conditions: 10 mM; cited from earlier work
# C. difficile [6] = conditions: used after vancomycin; cited from earlier work
structure (smiles),measurement,setting,value
C[C@@H]1[C@H](O)[C@@H](C)/C=C/C=C/CC/C=C/C=C/C=C/C=C/C(O[C@H]2O[C@H](C)[C@@H](O)[C@H](N)[C@@H]2O)CC2O[C@](O)(CC(O)C(O)CCC(O)CC(O)CC(O)CC(=O)O[C@H]1C)CC(O)C2C(=O)O (stereo partly shown) [nystatin],cell viability,Caco-2 cells,no differences
same,cell viability,T84 cells,no differences
same,amount of CFU counted (ethanol-resistant spores),[1],significant decrease
same,weight increase on day 11 in respect of day 0,"[2]; nystatin 12,000 IU/kg I.P. with vancomycin 50 mg/kg oral",6%
same,weight variation versus control group,"[2]; nystatin 12,000 IU/kg I.P. with vancomycin 50 mg/kg oral, versus vancomycin alone",no significant weight variations
CN[C@H](CC(C)C)C(=O)N[C@H]1C(=O)N[C@@H](CC(N)=O)C(=O)N[C@H]2C(=O)N[C@H]3C(=O)N[C@H](C(=O)N[C@H](C(=O)O)c4cc(O)cc(O)c4-c4cc3ccc4O)[C@H](O)c3ccc(c(Cl)c3)Oc3cc2cc(c3O[C@@H]2O[C@H](CO)[C@@H](O)[C@H](O)[C@H]2O[C@H]2C[C@](C)(N)[C@H](O)[C@H](C)O2)Oc2ccc(cc2Cl)[C@H]1O [vancomycin],patients who presented late R-CDI,C. difficile [3],35.5%
same,patients who presented early recurrences,C. difficile [3],27%
same,mice presenting recurrence,"[2]; 5 days after finishing vancomycin 50 mg/kg, 7 days",100%
same,levels of spores in stools,C. difficile spores,3.8 logarithmic units
same,"weight loss on day 11, the day of recurrence","C. difficile [4]; after discontinuing treatment on day 8, nystatin 4,250 and 17,000 IU/kg",suffered a weight loss
same,mice presenting recurrence,"C. difficile [4]; vancomycin 50 mg/kg alone, 5 days from day 3",75%
same,R-CDI rates,C. difficile toxin TcdB,27%
N[C@@H](CS)C(=O)O [cysteine],toxin production in vitro,C. difficile [5],reduces toxin production
CCc1c(Cl)c(O)c(Cl)c(O)c1C(=O)O[C@H]1[C@H](O)[C@H](OC)[C@H](OC/C2=C\C=C\C[C@H](O)/C(C)=C/[C@H](CC)[C@@H](O[C@@H]3OC(C)(C)[C@@H](OC(=O)C(C)C)[C@H](O)[C@@H]3O)/C(C)=C/C(C)=C/C[C@@H]([C@@H](C)O)OC2=O)O[C@@H]1C [fidaxomicin],patients who presented late R-CDI,C. difficile [3],19.7%
same,patients who presented early recurrences,C. difficile [3],8%
CO[C@H]1/C=C/O[C@@]2(C)Oc3c(C)c(O)c4c(O)c(c5c(nc6cc(C)ccn65)c4c3C2=O)NC(=O)/C(C)=C\C=C\[C@H](C)[C@H](O)[C@@H](C)[C@@H](O)[C@@H](C)[C@H](OC(C)=O)[C@@H]1C [rifaximin],efficiency rate,C. difficile [6],64%
